Measured values: US20090226500A1, “SUTURES AND ANTI-SCARRING AGENTS” (Angiotech Pharmaceuticals, Inc, priority 2006, published 2009)
Entries after “also recorded” stand apart in the source; their conditions may differ.

What was measured:
[1] = tested on: CAM vasculature (angiogenesis); assay: Chick chorioallantoic membrane (CAM) assay; conditions: for Inhibition/n: 48 hours
stromelysin (MMP-3) = assay: IL-1 induced stromelysin (MMP-3) mRNA expression in chondrocytes; type: cell-based
Protocol: (§1) Cells were treated with paclitaxel at various concentrations (10^−7 to 10^−5 M) for 24 hours, then treated with IL-1β (20 ng/ml) for additional 18 hours in the presence of paclitaxel. Total RNA was isolated, and the MMP-1 mRNA levels were determined by Northern blot analysis. The blots were subsequently stripped and re-probed with ^32P-radiolabeled rat GAPDH cDNA, which was used as a housekeeping gene. The results shown are representative of four independent experiments (FIG. 10D). Quantitation of collagenase-1 and stromelysin-expression mRNA levels were conducted. The MMP-1 and MMP-3 expression levels were normalized with GAPDH.

[2] = tested on: Primary human smooth muscle cells; assay: Smooth muscle cell migration; type: cell-based; conditions: chemotaxis to rhPDGF-BB 10 ng/ml, 4 hours
Protocol: Primary human smooth muscle cells were starved of serum in smooth muscle cell basal media containing insulin and human basic fibroblast growth factor (bFGF) for 16 hours prior to the assay. For the migration assay, cells were trypsinized to remove cells from flasks, washed with migration media and diluted to a concentration of 2-2.5×10^5 cells/ml in migration media. Migration media consists of phenol red free Dulbecco's Modified Eagle Medium (DMEM) containing 0.35% human serum albumin. A 100 μL volume of smooth muscle cells (approximately 20,000-25,000 cells) was added to the top of a Boyden chamber assembly (Chemicon QCM CHEMOTAXIS 96-well migration plate). To the bottom wells, the chemotactic agent, recombinant human platelet derived growth factor (rhPDGF-BB) was added at a concentration of 10 ng/ml in a total volume of 150 μL. Paclitaxel was prepared in DMSO at a concentration of 10^−2 M and serially diluted 10-fold to give a range of stock concentrations (10^−8 M to 10^−2 M). […]
At the end of the 4-hour period, cells in the top chamber were discarded and the smooth muscle cells attached to the underside of the filter were detached for 30 minutes at 37° C. in Cell Detachment Solution (Chemicon). […] Fluorescence was read in a fluorescence microplate reader at ˜480 nm excitation wavelength and ˜520 nm emission maxima. […]

collagenase (MMP-1) = assay: IL-1 induced collagenase (MMP-1) mRNA expression in chondrocytes; type: cell-based, calf
Protocol: as §1
Primary chondrocyte cultures were freshly isolated from calf cartilage. The cells were plated at 2.5×10^6 per ml in 100×20 mm culture dishes and incubated in Ham's F12 medium containing 5% FBS overnight at 37° C. The cells were starved in serum-free medium overnight and then treated with anti-microtubule agents at various concentrations for 6 hours. IL-1 (20 ng/ml) was then added to each plate and the plates incubated for an additional 18 hours. Total RNA was isolated by the acidified guanidine isothiocyanate method and subjected to electrophoresis on a denatured gel Denatured RNA samples (15 μg) were analyzed by gel electrophoresis in a 1% denatured gel, transferred to a nylon membrane and hydridized with the ^32P-labeled collagenase cDNA probe. ^32P-labeled glyceraldehyde phosphate […] (GAPDH) cDNA was used as an internal standard to ensure roughly equal loading. The exposed films were scanned and quantitatively analyzed with IMAGEQUANT.

[3] = tested on: murine RAW 264.7 macrophage cell line; assay: Proliferation of murine RAW 264.7 macrophage cell line; type: cell-based; conditions: Mus musculus, RAW264.7
AP-1 [4] = assay: IL-1 induced AP-1 DNA binding activity (gel mobility shift); type: cell-based; conditions: chondrocyte lysates, pretreated 10^−7 to 10^−5 M for 24 hours
Protocol: Binding activity was assayed with a radiolabeled human AP-1 sequence probe and gel mobility shift assay. Extracts from chondrocytes untreated or treated with various amounts of paclitaxet (10^−7 to 10^−5 M) followed by IL-1β (20 ng/ml) were incubated with excess probe on ice for 30 minutes, followed by non-denaturing gel electrophoresis (FIG. 10B). The “com” lane contains excess unlabeled AP-1 oligonucleotide. The results shown are representative of three independent experiments.

AP-1 [5] = assay: IL-1 stimulated AP-1 transcriptional activity (CAT reporter) in chondrocytes; type: cell-based; conditions: 10^−7 to 10^−5 M
human fibroblasts = assay: Cell proliferation of fibroblasts; type: cell-based; conditions: Fibroblast, 72 hours, CYQUANT, read-out: IC50 cell proliferation of fibroblasts
Summary of the method: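 Human fibroblasts plated at 600 cells/well, attached overnight, then exposed to drug in triplicate for 72 h at 37°C. Cell content read with CYQUANT GR dye in lysis buffer after 3-5 min at room temperature.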

Smooth muscle cells = assay: Proliferation of smooth muscle cells; type: cell-based; conditions: 72 hours, CYQUANT; read-out: IC50 proliferation of smooth muscle cells
Summary of the method: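 Smooth muscle cells at 600 cells/well, exposed to paclitaxel (DMSO stocks 10^−8 to 10^−2 M) in triplicate for 72 h at 37 °C. Proliferation read with CyQUANT GR dye in lysis buffer.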

`CC(=O)O[C@H]1C(=O)[C@@]2(C)[C@H]([C@H](OC(=O)c3ccccc3)[C@]3(O)C[C@H](OC(=O)[C@H](O)[C@@H](NC(=O)c4ccccc4)c4ccccc4)C(C)=C1C3(C)C)[C@]1(OC(C)=O)CO[C@@H]1C[C@@H]2O` [paclitaxel, 5β,20-epoxy-1,2 alpha,4,7β,10β,13 alpha-hexahydroxytax-11-en-9-one-4,10-diacetate-2-benzoate-13-(alpha-phenylhippurate)] was tested, and the Inhibition/n ([1]; 0.25 μg in methylcellulose (10 μl)) was 2/11, the Inhibition/n ([1]; 0.5 μg in methylcellulose (10 μl)) was 6/11 and the Inhibition/n ([1]; 1 μg in methylcellulose (10 μl)) was 6/15. The Inhibition/n ([1]; 5 μg in methylcellulose (10 μl)) was 20/27, the Inhibition/n ([1]; 10 μg in methylcellulose (10 μl)) was 16/21 and the Inhibition/n ([1]; 30 μg in methylcellulose (10 μl)) was 31/31. For the same compound, the angiogenesis ([1]; 48 hours after application to the CAM) was “inhibited”, the avascular gradient scale ([1]; maximal avascular zone within 48 hours, depending on concentration) was 3 and the “IL-1 induced stromelysin mRNA levels” value (stromelysin (MMP-3); at 10^−5 M) was “complete inhibition”. The “concentration that inhibits stromelysin expression” value (stromelysin (MMP-3); chondrocytes in vitro) was 10^−6 M, the “IL-1 induced stromelysin mRNA levels” value (stromelysin (MMP-3); chondrocytes, pretreatment for 24 hours) was “significantly reduced; also recorded: inhibited” and the IC50 [2] was 0.76 nM. For the same compound, the “IL-1 induced collagenase mRNA levels” value (collagenase (MMP-1); at 10^−5 M) was “complete inhibition”, the “concentration that inhibits IL-1-induced collagenase expression” value (collagenase (MMP-1); chondrocytes in vitro) was 10^−6 M and the “IL-1 induced collagenase mRNA levels” value (collagenase (MMP-1); chondrocytes, pretreatment before IL-1) was “significantly reduced; also recorded: inhibited”. The IC50 [3] was 134 nM, the “IL-1 induced AP-1 binding activity” value (AP-1 [4]) was “decreased” and the “IL-1 induced AP-1 reporter gene CAT activity” value (AP-1 [5]) was “decreased CAT activity in a concentration dependent manner; also recorded: reduced”. It also gave an IC50 (human fibroblasts) of 10 to 100 nM and an IC50 (Smooth muscle cells) of 7 nM.
